System: BDNF
Assay: BDNF transcript expression in the uterus of ovariectomized mice by Real Time PCR
Assay type: in vivo
Conditions: estradiol primed, Real Time PCR relative expression, FIG. 8
Description: BDNF transcripts were measured in the murine uterus of ovariectomized mice by Real Time PCR and relative expression quantified in mice receiving saline (Control (n=4)), estradiol primed then estradiol (E2 (n=6)), estradiol primed then progesterone (P4 (n=6)), estradiol primed then estradiol+progesterone (E2+P4 (n=6)), or estradiol primed then saline (Saline (n=4). [table]

SMILES: CC(=O)[C@H]1CC[C@H]2[C@@H]3CCC4=CC(=O)CC[C@]4(C)[C@H]3CC[C@]12C [P4, progesterone]
- BDNF expression in the uterus: significantly increased

From US12607622B2, “Method for diagnosing and monitoring inflammatory disease progression” (MCMASTER UNIVERSITY, priority 2013, dated 2026)
